The subject of this assay is barnyardgrass (Echinochloa oryzicola vasing). Put plainly: Growth inhibition of barnyardgrass in paddy soil pots, application under submerged condition, visual rating (observed value) and Colby expected value. The assay is classed as in vivo. The note with it: for inhibition at 7.9 g/ha: 0.079 g/a; for inhibition at 15.8 g/ha: 0.158 g/a; for inhibition at 50 g/ha: 0.5 g/a; for inhibition at 112.5 g/ha: 1.125 g/a; for inhibition at 225 g/ha: 2.25 g/a; for inhibition at 51 g/ha: 0.51 g/a.
Excerpt: When the herbicidal activity in a case where two active ingredients are combined, is larger than the simple sum of the respective herbicidal activities of the two active ingredients (the expected activity), it is called a synergistic effect. The activity expected by the combination of two active ingredients can be calculated as follows (Colby S. R., “Weed”, vol. 15, p. 20-22, 1967). E=p+q−(p×q÷100) where p: growth inhibition rate when treated with x (g/a) of herbicide X,
q: growth inhibition rate when treated with y (g/a) of herbicide Y,
E: growth inhibition rate expected when treated with x (g/a) of herbicide X and y (g/a) of herbicide Y.
Namely, when the actual growth inhibition rate (observed value) is larger than the growth inhibition rate by the above calculation (expected value), the activity by the combination can be regarded as showing a synergistic effect.
Paddy field soil was put into a 1/10,000 are pot, and seeds of barnyardgrass (Echinochloa oryzicola vasing) were sown and left to stand under an irrigated condition with a water depth of 3.5 cm. When barnyardgrass reached 2.0 to 2.5 leaf stage, wettable powders of compound A2 and compound (B1.1) were, respectively, diluted with water and applied under submerged condition so that the active ingredients became the prescribed amounts, respectively. The state of growth was visually observed 21 days after application, and the growth inhibition rate (%) evaluated in accordance with the following evaluation standard (observed value) and the growth inhibition rate (%) calculated by the above-mentioned Colby method (expected value) are shown in Table 1.
Growth inhibition rate (%)=0% (equivalent to the non-treated area) to 100% (complete kill)
(§1) Paddy field soil was put into a 1/10,000 are pot, and seeds of barnyardgrass (Echinochloa oryzicola vasing) were sown and left to stand under an irrigated condition with a water depth of 3.5 cm. When barnyardgrass reached 2.0 to 2.5 leaf stage, wettable powders of compound A2 and compound (B2.1) were, respectively, diluted with water and applied under submerged condition so that the active ingredients became the prescribed amounts, respectively. The state of growth was visually observed 21 days after application, and evaluation and calculation were carried out in the same manner as in the above Test Example 1.
as §1, with “leaf stage, a wettable powder” for “leaf stage, wettable powders”, “a wettable powder of compound” for “stage, wettable powders of compound”, “A2 and an emulsifiable concentrate of compound (B3.1)” for “A2 and compound (B2.1)”, “of compound (B3.1) were, respectively,” for “and compound (B2.1) were, respectively,”
as §1, with “(B4.1)” for “(B2.1)”
Paddy field soil was put into a 1/10,000 are pot, and seeds of barnyardgrass (Echinochloa oryzicola vasing) were sown and left to stand under an irrigated condition with a water depth of 3.5 cm. […]

Where [1] appears, read: Echinochloa oryzicola, soil, 504 h, 3.0 to 3.3 leaf stage, 21 days after application, read-out: Growth inhibition rate (%) Observed.
The mark [2] stands for this setting: Echinochloa oryzicola, soil, 528 h, 2.5 to 3.0 leaf stage, 22 days after application, read-out: Growth inhibition rate (%) Observed.
Where [3] appears, read: Echinochloa oryzicola, soil, 336 h, 2.8 to 3.4 leaf stage, 14 days after application, Test Examples 66-72, read-out: Growth inhibition rate (%) Observed.
[4] abbreviates: Echinochloa oryzicola, soil, 504 h, 2.0 to 2.5 leaf stage, 21 days after application, read-out: Growth inhibition rate (%) Observed.
Setting [5] is: Echinochloa oryzicola, soil, 528 h, 2.1 to 3.2 leaf stage, 22 days after application, read-out: Growth inhibition rate (%) Observed.

This is an account of results in patent publication US20070232492A1, “Herbicidal Composition” (Ishihara Sangyo Kaisha, LTD., priority 2004, published 2007).

Structures are written as SMILES. Read-outs that look alike come from different tables or passages of the source.

Take `CCOC(=O)c1cnn(C)c1S(=O)(=O)NC(=O)Nc1nc(OC)cc(OC)n1` [Compound (B1.3), pyrazosulfuron-ethyl]: under setting [1], the inhibition at 7.9 g/ha was determined as 20% and the inhibition at 15.8 g/ha is 37%. For the same compound, under setting [2], the inhibition at 7.9 g/ha worked out at 50% and the inhibition at 15.8 g/ha was found to be 70%.

Take `CO/N=C(\C)c1cccc(Oc2nc(OC)cc(OC)n2)c1C(=O)OC` [Compound (B2.1), pyriminobac-methyl]: the inhibition at 90 g/ha (Echinochloa oryzicola, soil, 336 h, read-out: Growth inhibition rate (%) Observed, 0.9 g/a, 2.8 to 3.4 leaf stage, 14 days after application, Test Examples 66-72) came out at 60%. Under “Echinochloa oryzicola, soil, 504 h, read-out: Growth inhibition rate (%) Observed, 0.225 g/a, 2.0 to 2.5 leaf stage, 21 days after application”, the inhibition at 22.5 g/ha amounted to 60%. Also, the inhibition at 45 g/ha (Echinochloa oryzicola, soil, 504 h, read-out: Growth inhibition rate (%) Observed, 0.45 g/a, 2.0 to 2.5 leaf stage, 21 days after application) was found to be 80%.

With `Cc1nn(C)c(OCC(=O)c2ccccc2)c1C(=O)c1ccc(Cl)cc1Cl` [Compound (B4.3), pyrazoxyfen], the “Growth inhibition rate (%) Observed” value runs as follows: (5.63 g/a, 2.5 to 3.0 leaf stage, 22 days after application) 0%; (11.25 g/a, 2.5 to 3.0 leaf stage, 22 days after application) 10%.

As for `CS(=O)(=O)c1ccc(C(=O)C2C(=O)CCCC2=O)c([N+](=O)[O-])c1` [Compound (B4.2), mesotrione], the inhibition at 25 g/ha (Echinochloa oryzicola, soil, 336 h, 0.25 g/a, 2.8 to 3.4 leaf stage, 14 days after application, Test Examples 66-72, read-out: Growth inhibition rate (%) Observed) stood at 0% and the inhibition at 25 g/ha (Echinochloa oryzicola, soil, 504 h, 0.25 g/a, 2.0 to 2.5 leaf stage, 21 days after application, read-out: Growth inhibition rate (%) Observed) was found to be 0%. Besides, the inhibition at 50 g/ha was determined as 0% under setting [3] and 0% under setting [4].

As for `CS(=O)(=O)c1ccc(C(=O)C2C(=O)CCCC2=O)c(Cl)c1COCC1CCCO1` (stereo not drawn) [Compound (B4.4), AVH-301], under setting [3], the inhibition at 112.5 g/ha was found to be 0% and the inhibition at 225 g/ha is 0%. Further, under setting [5], the inhibition at 112.5 g/ha was 13% and the inhibition at 225 g/ha worked out at 13%.

`Cc1ccc(S(=O)(=O)Oc2c(C(=O)c3ccc(Cl)cc3Cl)c(C)nn2C)cc1` [Compound (B4.5), pyrazolynate]: the inhibition at 500 g/ha (Echinochloa oryzicola, soil, 456 h, 5 g/a, 2.8 to 3.2 leaf stage, 19 days after application, Test Examples 62-65, read-out: Growth inhibition rate (%) Observed) turned out to be 0%. For the same compound, the inhibition at 1000 g/ha (Echinochloa oryzicola, soil, 456 h, 10 g/a, 2.8 to 3.2 leaf stage, 19 days after application, Test Examples 62-65, read-out: Growth inhibition rate (%) Observed) came to 0%.

As to `Cc1ccc(C(=O)COc2c(C(=O)c3ccc(Cl)c(C)c3Cl)c(C)nn2C)cc1` [Compound (B4.6), benzofenap], the “Growth inhibition rate (%) Observed” value runs as follows: (5 g/a, 2.8 to 3.2 leaf stage, 19 days after application, Test Examples 62-65) 0%; (10 g/a, 2.8 to 3.2 leaf stage, 19 days after application, Test Examples 62-65) 0%.

With `CCOc1ccccc1OS(=O)(=O)NC(=O)Nc1nc(OC)cc(OC)n1` [Compound (B1.5), ethoxysulfuron], under “Echinochloa oryzicola, soil, 336 h, 0.105 g/a, 2.8 to 3.4 leaf stage, 14 days after application, Test Examples 66-72, read-out: Growth inhibition rate (%) Observed”, the inhibition at 10.5 g/ha is 10%. In addition, the inhibition at 21 g/ha (Echinochloa oryzicola, soil, 336 h, 0.21 g/a, 2.8 to 3.4 leaf stage, 14 days after application, Test Examples 66-72, read-out: Growth inhibition rate (%) Observed) was 20%. For the same compound, under setting [2], the inhibition at 7.9 g/ha was 0% and the inhibition at 15.8 g/ha worked out at 3%.

In the case of `COc1cc(OC)nc(NC(=O)NS(=O)(=O)c2c(Cl)nc3ccccn23)n1` [Compound (B1.4), imazosulfuron], the inhibition at 45 g/ha (Echinochloa oryzicola, soil, 336 h, 0.45 g/a, 2.8 to 3.4 leaf stage, 14 days after application, Test Examples 66-72, read-out: Growth inhibition rate (%) Observed) amounted to 25%. Besides, the inhibition at 90 g/ha (Echinochloa oryzicola, soil, 336 h, 0.9 g/a, 2.8 to 3.4 leaf stage, 14 days after application, Test Examples 66-72, read-out: Growth inhibition rate (%) Observed) was determined as 40%. Also, the inhibition at 33.8 g/ha (Echinochloa oryzicola, soil, 528 h, 0.338 g/a, 2.5 to 3.0 leaf stage, 22 days after application, read-out: Growth inhibition rate (%) Observed) was 53%. Also, the inhibition at 67.5 g/ha (Echinochloa oryzicola, soil, 528 h, 0.675 g/a, 2.5 to 3.0 leaf stage, 22 days after application, read-out: Growth inhibition rate (%) Observed) amounted to 57%.

Consider `COC(=O)c1ccccc1CS(=O)(=O)NC(=O)Nc1nc(OC)cc(OC)n1` [Compound (B1.1), bensulfuron-methyl], for which, under “Echinochloa oryzicola, soil, 336 h, 0.255 g/a, 2.8 to 3.4 leaf stage, 14 days after application, Test Examples 66-72, read-out: Growth inhibition rate (%) Observed”, the inhibition at 25.5 g/ha was 30%. The inhibition at 51 g/ha is 45% under setting [3] and 57% under setting [4]. Further, where the note is “Echinochloa oryzicola, soil, 504 h, 0.26 g/a, 2.0 to 2.5 leaf stage, 21 days after application, read-out: Growth inhibition rate (%) Observed”, the inhibition at 26 g/ha was 47%.

With `COC(=O)c1c(Cl)nn(C)c1S(=O)(=O)NC(=O)Nc1nc(OC)cc(OC)n1` [Compound (B1.6), halosulfuron-methyl], the inhibition at 30 g/ha (Echinochloa oryzicola, soil, 456 h, read-out: Growth inhibition rate (%) Observed, 0.3 g/a, 2.8 to 3.2 leaf stage, 19 days after application, Test Examples 62-65) was 25%. For the same compound, the inhibition at 60 g/ha (Echinochloa oryzicola, soil, 456 h, read-out: Growth inhibition rate (%) Observed, 0.6 g/a, 2.8 to 3.2 leaf stage, 19 days after application, Test Examples 62-65) was 40%.

Regarding `COCc1cccc(C(O)c2nc(OC)cc(OC)n2)c1NS(=O)(=O)C(F)F` (stereo not drawn) [Compound (B2.2), KUH-021], the “Growth inhibition rate (%) Observed” value came out at 60% (0.25 g/a, 2.8 to 3.2 leaf stage, 21 days after application, Test Examples 39-43) and 68% (0.335 g/a, 2.8 to 3.2 leaf stage, 21 days after application, Test Examples 39-43).

As to `CC(C)(NC(=O)NCc1ccccc1Cl)c1ccccc1` [Compound (B6.2), cumyluron], the inhibition at 750 g/ha (Echinochloa oryzicola, soil, 504 h, 7.5 g/a, 2.0 to 2.5 leaf stage, 21 days after application, read-out: Growth inhibition rate (%) Observed) was 3%. The inhibition at 1500 g/ha (Echinochloa oryzicola, soil, 504 h, 15 g/a, 2.0 to 2.5 leaf stage, 21 days after application, read-out: Growth inhibition rate (%) Observed) was found to be 3%.
